# Assay results published in patent US9708339B2, “1,3-benzothiazinone, sulfoxide, and sulfone compounds with electrophilic substituent” (priority 2014, dated 2017).
# “Also recorded” adds a separate entry of the source. Like-named read-outs stand apart in the source and are kept apart here.
# Columns and labels:
# [1] = tested on: H37Rv strain of Mtb; test: Microplate alamar blue assay (MABA), in vitro anti-TB activity in 7H12 and GAS media; type: cell-based, Mycobacterium tuberculosis; details: for MIC / percentage in brackets after MIC >1, 7H12 / percentage in brackets after MIC >1, GAS: H37Rv; for activity against H37Rv strain of Mtb (in words): in vitro; for percentage in brackets after MIC >1, 7H12: 7H12 medium; for percentage in brackets after MIC >1, 7H12 / percentage in brackets after MIC >1, GAS: bracketed percentage not defined in the patent; for percentage in brackets after MIC >1, GAS: GAS medium
# [2] = molecular target: DprE1 (Mycobacterium tuberculosis, UniProt P9WJF0); details: cited from earlier work
# [3] = Mycobacterium tuberculosis, 7H12 medium (7H9 plus casitone, palmitic acid, albumin and catalase), read-out: MABA:MIC 7H12
# [4] = Mycobacterium tuberculosis, GAS (glycerol-alanine-salts) medium, read-out: MABA:MIC GAS
# [5] = 7H12 medium (7H9 plus casitone, palmitic acid, albumin and catalase), read-out: MABA:MIC 7H12
# [6] = GAS (glycerol-alanine-salts) medium, read-out: MABA:MIC GAS
# Chain of DprE1 (P9WJF0 whole entry): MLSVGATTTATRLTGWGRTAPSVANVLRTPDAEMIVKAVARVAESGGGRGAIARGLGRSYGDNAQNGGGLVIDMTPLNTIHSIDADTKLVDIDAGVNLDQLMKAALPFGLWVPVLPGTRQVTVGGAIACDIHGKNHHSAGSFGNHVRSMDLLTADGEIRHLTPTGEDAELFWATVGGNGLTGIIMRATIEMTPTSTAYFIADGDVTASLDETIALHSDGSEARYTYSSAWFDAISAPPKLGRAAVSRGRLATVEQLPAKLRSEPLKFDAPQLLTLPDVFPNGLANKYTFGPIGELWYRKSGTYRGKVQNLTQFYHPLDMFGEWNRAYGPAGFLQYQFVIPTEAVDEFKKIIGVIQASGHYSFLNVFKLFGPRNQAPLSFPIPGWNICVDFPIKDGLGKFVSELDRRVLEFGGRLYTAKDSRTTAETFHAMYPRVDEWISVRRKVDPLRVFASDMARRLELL
SMILES,"MIC [1, 3] [µM]","MIC [1, 4] [µM]","MIC [1, 5] [µM]","MIC [1, 6] [µM]",other results
"C[C@H]1COC2(CCN(c3nc(=O)c4cc(C(F)(F)F)cc([N+](=O)[O-])c4s3)CC2)O1 [BTZ043, reference compound]",< 0.004,< 0.004,,,mode of DprE1 inhibition (in words) [2]: suicide inhibitor
C[C@H]1COC2(CCN(c3nc(=O)c4cc(C(F)(F)F)cc(N=[N+]=[N-])c4s3)CC2)O1 [Compound 3],0.47,0.46,,,activity against H37Rv strain of Mtb (in words) [1]: outstanding activity; also recorded: impressive activity; activity against H37Rv strain of Mtb (in words) ([1]; listed as BTZ-N3): impressive activity
C[C@H]1COC2(CCN(c3nc(=O)c4cc(C(F)(F)F)cc(N)c4s3)CC2)O1 [Compound 6],,,> 1,> 1,"percentage in brackets after MIC >1, 7H12 [1]: 87%; percentage in brackets after MIC >1, GAS [1]: 0%"
CC1COC2(CCN(c3nc(=O)c4cc(C(F)(F)F)ccc4s3)CC2)O1 (centres unmarked) [Compound 8],,,> 1,> 1,"percentage in brackets after MIC >1, 7H12 [1]: 87%; percentage in brackets after MIC >1, GAS [1]: 36%; activity against H37Rv strain of Mtb (in words) [1]: not significantly active; also recorded: reduced"
C[C@H]1COC2(CCN(c3nc(=O)c4cc(C(F)(F)F)cc(-n5cc(CN(C)C)nn5)c4s3)CC2)O1 [Compound 9],0.87,0.95,,,
"NNC(=O)c1ccncc1 [INH, reference compound]",,,0.1,0.03,
O=c1nc(N2CCN(CC3CCCCC3)CC2)sc2c([N+](=O)[O-])cc(C(F)(F)F)cc12 [PBTZ169],,,,,mode of DprE1 inhibition (in words) [2]: suicide inhibitor
"CO[C@H]1/C=C/O[C@@]2(C)Oc3c(C)c(O)c4c(O)c(c(/C=N/N5CCN(C)CC5)c(O)c4c3C2=O)NC(=O)/C(C)=C\C=C\[C@H](C)[C@H](O)[C@@H](C)[C@@H](O)[C@@H](C)[C@H](OC(C)=O)[C@@H]1C [Rifampin, reference compound]",0.05,0.04,,,
